Laboratory results from patent publication US20240075050A1, “Methods and Compositions for Treating Leucine Rich Repeat Kinase 2 (LRRK2)-Associated Disorder or Condition” (University of Connecticut, priority 2022, published 2024).

Assays:
[1] = tested on: LRRK2; assay: Endogenous LRRK2 levels in SH-SY5Y cells, Western blot; type: cell-based, human
[2] = stated as reason for using the precursor AICAr; cited from earlier work
[3] = tested on: [α-32P]cap-labeled LRRK2 RNA; assay: In vitro decapping assay; type: biochemical, human; conditions: recombinant Flag-tagged protein from HEK 293T cells, thin layer chromatography

N#Cc1c(O)c2c(-c3ccc(-c4ccccc4O)cc3)csc2[nH]c1=O [A769662]
LRRK2 levels ([1]; SH-SY5Y, 10, 20, or 50 μM A769662, 48 hours): no obvious effects

Nc1ncnc2nc(-c3ccc(N4CCOCC4)nc3)cc(-c3cccc(Br)c3)c12 [ABT-702]
effect of AICAr on LRRK2 levels in the presence of ABT-702 ([1]; SH-SY5Y, 1 mM AICAr plus 1 μM ABT-702, 48 hours): completely counteracted

NC(=O)c1ncn([C@@H]2O[C@H](COP(=O)(O)O)[C@@H](O)[C@H]2O)c1N [AICAR/ZMP, 5-aminoimidazole-4-carboxamide ribonucleotide]
membrane permeability [2]: membrane impermeable

O=[N+]([O-])c1ccc(CSc2ncnc3c2ncn3[C@@H]2O[C@H](CO)[C@@H](O)[C@H]2O)cc1 [NBTI]
effect of AICAr on LRRK2 levels in the presence of NBTI ([1]; SH-SY5Y, 1 mM AICAr plus 50 μM NBT-1, 48 hours): completely abolished

DCP2: recombinant Flag-tagged decapping enzyme purified from HEK 293T cells
LRRK2 mRNA decapping activity (m7GDP level) [3]: decapped LRRK2 mRNA

B1: DCP1A: recombinant Flag-tagged decapping enzyme purified from HEK 293T cells (protein, UniProt Q9NPI6 1-582, looked up)
mRNA-decapping enzyme 1A: MEALSRAGQEMSLAALKQHDPYITSIADLTGQVALYTFCPKANQWEKTDIEGTLFVYRRSASPYHGFTIVNRLNMHNLVEPVNKDLEFQLHEPFLLYRNASLSIYSIWFYDKNDCHRIAKLMADVVEEETRRSQQAARDKQSPSQANGCSDHRPIDILEMLSRAKDEYERNQMGDSNISSPGLQPSTQLSNLGSTETLEEMPSGSQDKSAPSGHKHLTVEELFGTSLPKEQPAVVGLDSEEMERLPGDASQKEPNSFLPFPFEQLGGAPQSETLGVPSAAHHSVQPEITTPVLITPASITQSNEKHAPTYTIPLSPVLSPTLPAEAPTAQVPPSLPRNSTMMQAVKTTPRQRSPLLNQPVPELSHASLIANQSPFRAPLNVTNTAGTSLPSVDLLQKLRLTPQHDQIQTQPLGKGAMVASFSPAAGQLATPESFIEPPSKTAAARVAASASLSNMVLAPLQSMQQNQDPEVFVQPKVLSSAIPVAGAPLVTATTTAVSSVLLAPSVFQQTVTRSSDLERKASSPSPLTIGTPESQRKPSIILSKSQLQDTLIHLIKNDSSFLSTLHEVYLQVLTKNKDNHNL
modifications: Flag tag
notes: recombinant Flag-tagged decapping enzyme purified from HEK 293T cells
LRRK2 mRNA decapping activity (m7GDP level) [3]: decapped LRRK2 mRNA
